Experimental data as given in ChEMBL document CHEMBL1201862, “PubChem BioAssay data set” (2004).
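Dose response: 5 concentrations. Exposure: 48 h. Format: 96-well plates. Endpoint: linear interpolation; highest concentration if not reached. GI50 = concentration required for 50% inhibition of growth.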 Activity calls are given as the source filed them. No stated cut-off is given here; in the data, active = GI50 up to about 1.1 µM and inactive = higher.

Columns and labels:
Assay in all cases: growth of human tumour cells (NCI), 48 h
NCI-H460 = system: NCI-H460
A498 = system: A498
RPMI-8226 = system: RPMI-8226
ACHN = system: ACHN
NCI-H23 = system: NCI-H23
SN12C = system: SN12C
U-251 = system: U-251
DU-145 = system: DU-145
MDA-MB-231 = system: MDA-MB-231
HCT-15 = system: HCT-15
SF-268 = system: SF-268
RXF 393 = system: RXF 393
KM12 = system: KM12
786-0 = system: 786-0
CAKI-1 = system: CAKI-1
NCI-H522 = system: NCI-H522
PC-3 = system: PC-3
EKVX = system: EKVX
SNB-19 = system: SNB-19
CCRF-CEM = system: CCRF-CEM

Structure (SMILES)	GI50 (NCI-H460)	GI50 (A498)	GI50 (RPMI-8226)	GI50 (ACHN)	GI50 (NCI-H23)	GI50 (SN12C)	GI50 (U-251)	GI50 (DU-145)	GI50 (MDA-MB-231)	GI50 (HCT-15) [µM]	GI50 (SF-268)	GI50 (RXF 393)	GI50 (KM12)	GI50 (786-0)	GI50 (CAKI-1)	GI50 (NCI-H522)	GI50 (PC-3)	GI50 (EKVX)	GI50 (SNB-19)	GI50 (CCRF-CEM)
NS(=O)(=O)c1ccc(/N=N/c2ncccc2O)cc1	69.3 µM (inactive)	> 100 µM (inactive)	> 100 µM (inactive)	> 100 µM (inactive)	51.4 µM (inactive)	71.8 µM (inactive)	> 100 µM (inactive)	38.5 µM (inactive)	> 100 µM (inactive)	> 100	> 100 µM (inactive)	> 100 µM (inactive)	60.5 µM (inactive)	53.1 µM (inactive)	> 100 µM (inactive)	44.9 µM (inactive)	> 100 µM (inactive)	> 100 µM (inactive)	> 100 µM (inactive)	
Cc1cc(=O)oc2cc(O)c(CN(C)CC(=O)O)cc12	> 100 µM (inactive)	> 100 µM (inactive)	> 100 µM (inactive)	> 100 µM (inactive)	> 100 µM (inactive)	> 100 µM (inactive)	> 100 µM (inactive)	> 100 µM (inactive)	> 100 µM (inactive)	> 100	> 100 µM (inactive)	> 100 µM (inactive)	> 100 µM (inactive)	> 100 µM (inactive)	> 100 µM (inactive)	> 100 µM (inactive)	> 100 µM (inactive)	> 100 µM (inactive)	> 100 µM (inactive)	
CN(C)Cc1nsc(N(C)C)n1	> 100 µM (inactive)	> 100 µM (inactive)	> 100 µM (inactive)	> 100 µM (inactive)	> 100 µM (inactive)	> 100 µM (inactive)	> 100 µM (inactive)	> 100 µM (inactive)	> 100 µM (inactive)	> 100	> 100 µM (inactive)	> 100 µM (inactive)	> 100 µM (inactive)	> 100 µM (inactive)	> 100 µM (inactive)	> 100 µM (inactive)	> 100 µM (inactive)	> 100 µM (inactive)	> 100 µM (inactive)	
COc1ccc2nc(-c3ccccc3)cc(OCC(=O)O)c2c1	> 100 µM (inactive)	> 100 µM (inactive)	> 100 µM (inactive)	> 100 µM (inactive)	> 100 µM (inactive)	> 100 µM (inactive)	> 100 µM (inactive)	> 100 µM (inactive)	> 100 µM (inactive)	> 100	> 100 µM (inactive)		> 100 µM (inactive)	> 100 µM (inactive)	> 100 µM (inactive)	> 100 µM (inactive)	> 100 µM (inactive)	> 100 µM (inactive)	> 100 µM (inactive)	> 100 µM (inactive)
O=C1CCCCC1CN1CCCCC1 (centres undefined)	> 100 µM (inactive)	> 100 µM (inactive)		> 100 µM (inactive)	> 100 µM (inactive)	> 100 µM (inactive)	> 100 µM (inactive)	> 100 µM (inactive)	> 100 µM (inactive)	> 100	> 100 µM (inactive)	> 100 µM (inactive)	> 100 µM (inactive)	> 100 µM (inactive)	> 100 µM (inactive)	1.91 µM (inactive)	> 100 µM (inactive)	> 100 µM (inactive)	> 100 µM (inactive)	> 100 µM (inactive)
COC(=O)c1ccc(C)cc1CC1Cc2cc(C)ccc2C1=O (centres undefined)	> 100 µM (inactive)	> 100 µM (inactive)	> 100 µM (inactive)	> 100 µM (inactive)	> 100 µM (inactive)	> 100 µM (inactive)	> 100 µM (inactive)	> 10 µM (inactive)	> 100 µM (inactive)	> 100	> 100 µM (inactive)		> 100 µM (inactive)	> 100 µM (inactive)	> 100 µM (inactive)	> 100 µM (inactive)	> 100 µM (inactive)	> 100 µM (inactive)	> 100 µM (inactive)	> 100 µM (inactive)
